The values below are quoted from earlier work in patent publication US4916163A, “Spray-dried lactose formulation of micronized glyburide” (The Upjohn Company, priority 1985, dated 1990).

In the data set the test system is Type II (adult-onset) diabetes mellitus. The settings on record: in words, background.

Regarding `COc1ccc(Cl)cc1C(=O)NCCc1ccc(S(=O)(=O)NC(=O)NC2CCCCC2)cc1` [glyburide, N-[4-(β-[2-methoxy-5-chloro-benzamido]-ethyl)-benzenesulfonyl]-N'-cyclohexyl-urea], the “Reduction of serum glucose concentrations” value is reported as “effective in reducing serum glucose concentrations”.
